Reference: patent US8778975B2, “Helicobacter pylori eradicating agent having inhibitory activity on gastric acid secretion” (Link Geonomics, Inc., priority 2006, dated 2014)
Values after ≈ are worked out from the molar mass of the structure shown. Like-named read-outs stand apart in the source and are kept apart here.

Assays:
[1] = Stability test in acidic hydrochloric acid solution (pH 2), residual ratio by HPLC; format: physicochemical; conditions: for Stability in acid (residual ratio at pH = 2: %): Table 8 summary, time not stated; for Residual ratio at pH 2: pH 2 HCl, 37° C.
Description: A test for the stability of thioether compounds (hereinafter, referred to SH-form) and sulfoxide compounds (hereinafter, referred to SO-form) at pH 2.0 was carried out. (Method) Each of the specimens produced in Examples 1 to 3 and Reference Examples 6 to 8 (sulfinyl products of Examples 1 to 3) was maintained in a solution adjusted to pH 2 with 0.5 or 1.0 mmol/L HCl (37° C.) for a predetermined time period. Subsequently, the solution was adjusted to pH 8 with triethylamine, and then an HPLC analysis was performed to calculate the residual ratio.

[2] = tested on: Helicobacter pylori standard strain ATCC 43504; assay: Antibacterial potency test (MIC), Columbia agar medium, Pharmacological Test Example 1; format: cell-based
Description: A test was conducted to see whether there is a difference in the anti-Helicobacter pylori activity depending on the number of carbon atoms of the linear alkyl group for a substituent at the 4-position of the pyridine ring.
For the bacterium Helicobacter pylori, a standard strain ATCC 43504 was used to perform in vitro tests in Columbia agar medium. Each of the specimens was dissolved in a 1% DMSO solution, and the bacteria were cultured at 37° C. and pH 7.0 for 3 days. On the 4th day, the minimum growth inhibitory concentration (MIC, μg/ml) was determined.

[3] = tested on: Helicobacter pylori bacteria (ATCC 43504); assay: Antiulcer action and bacteria eradicating action in Helicobacter pylori-infected Mongolian gerbils; format: in vivo; conditions: for Number of Bacteria (average) (log CFU): gastric mucosa
Description: Mongolian gerbils were experimentally infected with Helicobacter pylori bacteria, and the antiulcer action and the Helicobacter pylori bacteria eradicating action of the compounds of the present invention were tested.
Male Mongolian gerbils (30 to 40 g), five animals in each group, were orally inoculated with Helicobacter pylori bacteria (ATCC 43504) at 1.6×10^7 CFU/0.5 ml/mouse, and bred for one week, and then drug was administered two times a day for two weeks. Thereafter, the […] were bred for three weeks, and then the rats were fasted for 18 hours and subjected to abdominal section, followed by autopsy. The severity of gastric ulcer, the number of Helicobacter pylori bacteria in the gastric mucosa, and the antibody titer were measured.

[4] = tested on: gastric acid secretion; assay: Gastric acid secretion inhibiting action, pylorus ligation in rats; format: in vivo, SD rats; conditions: 30 mg/kg to the duodenum, 4 hours after pylorus ligation, average
Description: The gastric acid secretion inhibiting action of the compounds of the present invention was tested. A group of five animals of male SD rats (about 200 g) were used, and the medicaments were respectively dissolved in 0.5% CMC and were all administered to the duodenum respectively at 30 mg/kg. The rats were fasted overnight from the day before the administration of the test substance to the point of administration, and pylorus ligation was performed.

[5] = tested on: Helicobacter pylori standard strains ATCC 43504, ATCC 43629, ATCC 43570 and clinically separated strains; assay: Anti-Helicobacter pylori activity (MIC), standard and clinically separated strains, Pharmacological Test Example 2; format: cell-based
Description: For the bacterium Helicobacter pylori, standard strains ATCC 43504, ATCC 43629 and ATCC 43570 were used to perform in vitro tests in Columbia agar medium. The bacteria were cultured at 37° C. and pH 7.0 for 3 days. On the 4th day, the minimum growth inhibitory concentration (MIC, μg/ml) was determined. Each of the specimens was dissolved in a 1% DMSO solution. Furthermore, amoxicillin and clarithromycin were used as control drugs of antibacterial substance. Further, the compound described in the article of Thomas C. Kuehler (J. Med.

[6] = ATCC43504, Table 8 summary, strain not stated, read-out: Anti-HP activity (MIC: μg/mL)
[7] = Helicobacter pylori, ATCC43504, Table 8, amount of administration (mg) 30, read-out: HP eradication based on Mongolian gerbil infection model: Eradication rate (%)
[8] = ATCC43504, 72 h, ATCC 43504, 37° C., pH 7.0, 3 days, read-out: MIC
[9] = Clinically separated strain PT1045482
[10] = Clinically separated strain PT1045483
[11] = Clinically separated strain PT1045484
[12] = 30 mg/kg, two times a day for two weeks
[13] = Helicobacter pylori, ATCC43504, 336 h, 30 mg/kg, two times a day for two weeks, read-out: Eradication rate (%)

COc1ccc2[nH]c([S+]([O-])Cc3ncc(C)c(OC)c3C)nc2c1 (stereo not shown) [OMZ, Omeprazole]
Stability in acid (residual ratio at pH = 2: %) [1]: 0% | MIC [2, 6]: 128 µg/mL (≈ 371 µM) | Antibody titer (average) ([3]; 10 mg/kg): 0.52 | Number of Bacteria (average) (log CFU) ([3]; 10 mg/kg): 6.0 log CFU | Number of Ulcers discovered ([3]; 10 mg/kg, two times a day for two weeks): 5/5 | responders at 10 mg/kg ([3]; Helicobacter pylori, ATCC43504, 336 h, 10 mg/kg, two times a day for two weeks, read-out: Eradication rate (%)): 0% | responders at 30 mg/kg [3, 7]: 0%

CCCCOc1ccnc(CSc2nc3ccccc3[nH]2)c1C [Example 4, 2-[(4-n-butoxy-3-methylpyridin-2-yl)-methylthio]-1H-benzimidazole]
MIC [2, 8]: 0.3 µg/mL (≈ 0.916 µM)

CCCCCCCCCOc1ccnc(CSc2nc3ccccc3[nH]2)c1C [Reference Example 4, 2-[(4-n-nonyloxy-3-methylpyridin-2-yl)-methylthio]-1H-benzimidazole]
MIC [2, 8]: 1 µg/mL (≈ 2.52 µM)

CN/C(=N/CCSCc1nc[nH]c1C)NC#N [Cimetidine]
Gastric acid secretion inhibiting action: Amount of gastric acid [4]: 54% | Gastric acid secretion inhibiting action: Amount of gastric acid secretion [4]: 74% | Gastric acid secretion inhibiting action: Total acidity [4]: 41%

CCCCCCCOc1ccnc(C[S+]([O-])c2nc3ccccc3[nH]2)c1C (racemic) [Reference Example 8, (±)-2-[(4-n-heptyloxy-3-methylpyridin-2-yl)-methylsulfinyl]-1H-benzimidazole]
Residual ratio at pH 2 ([1]; 0 min): 100% | Residual ratio at pH 2 ([1]; 30 min): 0% | Residual ratio at pH 2 ([1]; 2 hours): 0% | Stability in acid (residual ratio at pH = 2: %) [1]: 0% | MIC [2, 8]: 3 µg/mL (≈ 7.78 µM) | MIC [2, 6]: 3 µg/mL (≈ 7.78 µM) | responders at 30 mg/kg [3, 7]: 0%

CCCOc1ccnc(CSc2nc3ccccc3[nH]2)c1C [Reference Example 3, 2-[(4-n-propoxy-3-methylpyridin-2-yl)-methylthio]-1H-benzimidazole]
MIC [2, 8]: 1 µg/mL (≈ 3.19 µM)

CCCCCOc1ccnc(C[S+]([O-])c2nc3ccccc3[nH]2)c1C (racemic) [Reference Example 6, (±)-2-[(4-n-pentyloxy-3-methylpyridin-2-yl)-methylsulfinyl]-1H-benzimidazole]
Residual ratio at pH 2 ([1]; 0 min): 100% | Residual ratio at pH 2 ([1]; 30 min): 0% | Residual ratio at pH 2 ([1]; 2 hours): 0% | Stability in acid (residual ratio at pH = 2: %) [1]: 0% | MIC [2, 8]: 3 µg/mL (≈ 8.39 µM) | MIC [2, 6]: 3 µg/mL (≈ 8.39 µM) | responders at 30 mg/kg [3, 7]: 0%

CCCCCCCCCCOc1ccnc(CSc2nc3ccccc3[nH]2)c1C [Reference Example 5, 2-[(4-n-decyloxy-3-methylpyridin-2-yl)-methylthio]-1H-benzimidazole]
MIC [2, 8]: 3 µg/mL (≈ 7.29 µM)

CCOc1ccnc(CSc2nc3ccccc3[nH]2)c1C [Reference Example 2, 2-[(4-ethoxy-3-methylpyridin-2-yl)-methylthio]-1H-benzimidazole]
MIC [2, 8]: 1 µg/mL (≈ 3.34 µM)

COc1ccnc(CSc2nc3ccccc3[nH]2)c1C [Reference Example 1, 2-[(4-methoxy-3-methylpyridin-2-yl)-methylthio]-1H-benzimidazole]
MIC [2, 8]: 3 µg/mL (≈ 10.5 µM)

Cc1c(OCC(F)(F)F)ccnc1C[S+]([O-])c1nc2ccccc2[nH]1 (stereo not shown) [LAZ, Lansoprazole]
Residual ratio at pH 2 ([1]; 0 min): 100% | Residual ratio at pH 2 ([1]; 30 min): 0% | Residual ratio at pH 2 ([1]; 2 hours): 0% | Stability in acid (residual ratio at pH = 2: %) [1]: 0% | MIC [2, 6]: 16 µg/mL (≈ 43.3 µM) | responders at 30 mg/kg [3, 7]: 0%

Cc1c(OCC(C)C)ccnc1CSc1nc2ccccc2[nH]1 [Comparative Example 1, 2-[(4-isobutoxy-3-methylpyridin-2-yl)methylthio]-1H-benzimidazole]
MIC [5, 9]: 3 µg/mL (≈ 9.16 µM) | MIC [5, 10]: 3 µg/mL (≈ 9.16 µM) | MIC [5, 11]: 1 µg/mL (≈ 3.05 µM) | MIC ([5]; Standard strain ATCC 43504): 3 µg/mL (≈ 9.16 µM) | MIC ([5]; Standard strain ATCC 43570): 1 µg/mL (≈ 3.05 µM) | MIC ([5]; Standard strain ATCC 43629): 1 µg/mL (≈ 3.05 µM) | Antibody titer (average) ([3]; 30 mg/kg): 0.49 | Number of Bacteria (average) (log CFU) ([3]; 30 mg/kg): 6.3 log CFU | Number of Ulcers discovered [3, 12]: 5/5 | responders at 30 mg/kg [3, 13]: 0%

CCCCCCCCOc1ccnc(CSc2nc3ccccc3[nH]2)c1C [Example 5, 2-[(4-n-octyloxy-3-methylpyridin-2-yl)-methylthio]-1H-benzimidazole]
MIC [2, 8]: 0.3 µg/mL (≈ 0.782 µM)

CC(C)COc1ccnc(CSc2nc3ccccc3[nH]2)c1 [Comparative Example 2, 2-[(4-isobutoxy-pyridin-2-yl)methylthio]-1H-benzimidazole]
MIC [5, 9]: 10 µg/mL (≈ 31.9 µM) | MIC [5, 10]: 10 µg/mL (≈ 31.9 µM) | MIC [5, 11]: 10 µg/mL (≈ 31.9 µM) | MIC ([5]; Standard strain ATCC 43504): 10 µg/mL (≈ 31.9 µM) | MIC ([5]; Standard strain ATCC 43570): 5 µg/mL (≈ 16 µM) | MIC ([5]; Standard strain ATCC 43629): 10 µg/mL (≈ 31.9 µM) | Antibody titer (average) ([3]; 30 mg/kg): 0.55 | Number of Bacteria (average) (log CFU) ([3]; 30 mg/kg): 5.9 log CFU | Number of Ulcers discovered [3, 12]: 5/5 | responders at 30 mg/kg [3, 13]: 0%

CCCCCCOc1ccnc(C[S+]([O-])c2nc3ccccc3[nH]2)c1C (racemic) [Reference Example 7, (±)-2-[(4-n-hexyloxy-3-methylpyridin-2-yl)-methylsulfinyl]-1H-benzimidazole]
Residual ratio at pH 2 ([1]; 0 min): 100% | Residual ratio at pH 2 ([1]; 30 min): 0% | Residual ratio at pH 2 ([1]; 2 hours): 0% | Stability in acid (residual ratio at pH = 2: %) [1]: 0% | MIC [2, 8]: 3 µg/mL (≈ 8.08 µM) | MIC [2, 6]: 3 µg/mL (≈ 8.08 µM) | responders at 30 mg/kg [3, 7]: 0%

COCCCOc1ccnc(C[S+]([O-])c2nc3ccccc3[nH]2)c1C (stereo not shown) [RAZ, Rabeprazole]
Stability in acid (residual ratio at pH = 2: %) [1]: 0% | MIC [2, 6]: 8 µg/mL (≈ 22.3 µM) | responders at 30 mg/kg [3, 7]: 0%
